# Like-named read-outs stand apart in the source and are kept apart here.
# Legend:
# [1] = test system: mice transplanted with myeloma cells ARH-77; test: Bone resorption inhibition test in multiple myeloma model animals (urinary deoxypyridinoline); format: in vivo, C.B-17/lcr-scid Jcl mice; conditions: 0.1 mg/kg intravenous once; urine on day 4 after administration; mice with paralysis in hind limbs; vs solvent group
# Protocol: On the next day, 10^6 cells/mouse of myeloma cells ARH-77 were transplanted into the left cardiac ventricle of each animal under anesthesia with pentobarbital. […] On the day 4 after the administration, a physiological saline load (30 ml/kg po) was burdened to these mice and the urine was collected after 6 hours. Since the mice suffering from paralysis in hind limbs could hardly urinate, such an animal was subjected to abdominal section and the urine was directly collected from the bladder. Normal animals (sham-operated group), into the left cardiac ventricle of which PBS (0.1 ml/animal) was injected as a substitute for the myeloma cells, were treated in the same manner. The urinary deoxypyridinoline (Dpyr) level was measured by using a [sequence]-D kit (Amersham) and corrected with the urinary creatinine level.
# [2] = test system: mice transplanted with myeloma cells ARH-77; test: Lumbar bone mineral density decrease test in multiple myeloma model animals; format: in vivo
# Protocol: Similar to Example 1, mice suffering from paralysis in hind limbs were selected 3 weeks after the transplantation of myeloma cells. Then an aqueous solution of the compound A monohydrate (3 mg/kg) (compound A group) and the solvent alone (solvent group) were orally administered once a day for 6 days repeatedly. On the next day of the completion of the administration, a 10% formalin solution was refluxed from the left cardiac ventricle under anesthesia with pentobarbital and the lumber vertebrae was taken out. The bone mineral density in the bone tissue was measured by the DXA method. As Example 1, the normal mice (sham-operated group) were also subjected to the measurement of the bone mineral density.
# Two weeks after the transplantation of the myeloma cells, the compound A was orally administered for 14 days in doses of 0.03, 0.3 and 3 mg/kg. Then the bone mineral density was measured as in the above (1) but selecting animals suffering from paralysis in hind limbs during the administration period.
# [3] = test system: human myeloma cells ARH-77; test: Myeloma cell proliferation inhibitory test; format: cell-based
# Protocol: A 5×10^4 cells/ml cell dilution of human myeloma cells […], which had been incubated in a culture flask, was prepared by using an RPMI1640 medium (containing 10% of EBS), pipetted in 1 ml portions into a 24-well plate and then incubated in a CO2 incubator at 37° C. After 6 hours, 100 μl portions of the aqueous solution of the compound A were added to give final concentrations of 0.3 to 1000 μM (three-fold serial, duplicate samples). After incubating in the CO2 incubator at 37° C. for 4 days, the viable cells were counted with the use of a Cell Counting Kit (Dojin Kagaku). By referring the value of the control prepared by adding PBS as to the cell proliferation inhibitory ratio of […], the inhibitory ratios were calculated.
# [4] = test system: patient with multiple myeloma; test: Clinical test 1 (multiple myeloma and bone lesions, one patient); format: in vivo, human; conditions: for M protein (IgD): blood
# [5] = test system: patients with multiple myeloma; conditions: for systemic bone salt mass, change ratio to the data before the administration: 5 patients
# murine model of myeloma = conditions: cited from earlier work
# [6] = test system: patients with multiple myeloma; conditions: 30 mg/day oral; cited from earlier work
# patients = conditions: intravenous 90 mg/4 weeks, cited from earlier work
# [7] = 3 mg oral once a day, after 8 weeks
# [8] = 6 mg oral once a day, after 24 weeks
smiles,measurement,setting,value
"O=P(O)(O)C(O)(Cc1cnc2ccccn12)P(=O)(O)O [compound A, 1-hydroxy-2-(imidazo[1,2-a]pyridin-3-yl)ethane-1,1-bisphosphonic acid]",inhibition of the increase in urinary Dpyr level (bone resorption marker),[1],significantly inhibited
same,bone mineral density of lumbar vertebrae,"[2]; 3 mg/kg oral once a day for 6 days, DXA method, mice with paralysis in hind limbs",24.7 ± 0.9 mg/cm^2.
same,lumbar bone mineral density compared with solvent group,"[2]; oral administration (6 days 3 mg/kg; 14 days 0.03, 0.3, 3 mg/kg)",higher bone mineral density than the solvent group
same,cell proliferation inhibitory ratio,"[3]; 100 μM, 4 days incubation, ARH-77",84.2%
same,inhibition of ARH-77 cell proliferation,"[3]; 0.3 to 1000 μM, 4 days",dose-dependent manner
same,Dpyr level relative to level before the administration,[4]; [7],about 60%
same,M protein (IgD),"[4]; 3 mg oral once a day, after 2 weeks",11.6 mg/dL
same,M protein (IgD),"[4]; 3 mg oral once a day, after 4 weeks",9.8 mg/dL
same,M protein (IgD),[4]; [7],7.7 mg/dL
same,M protein (IgD),"[4]; 3 mg oral once a day, after 20 weeks",5.9 mg/dL
same,M protein (IgD),[4]; before administration,25.8 mg/dL
same,side effects related to the compound,"[5]; 6 mg oral once a day for 24 weeks, 6 patients",No side effect
same,"systemic bone salt mass, change ratio to the data before the administration","[5]; 6 mg oral once a day, after 12 weeks",0.61%
same,narcotic score (analgesic type × administration frequency),[5]; [8],0.60±1.342
same,"systemic bone salt mass, change ratio to the data before the administration",[5]; [8],1.18%
same,EORTC questionnaire on QOL,"[5]; 6 mg oral once a day, before vs after 24 weeks","improvement was observed in pain, fatigue, shortness of breath, inappetence, constipation, economic conditions"
same,bone lesions in bone radiographs,"[5]; 6 mg oral once a day, one of the patients",obvious amelioration in bone lesions
same,narcotic score (analgesic type × administration frequency),[5]; before the administration,1.67±3.615
O=P(O)(O)C(O)(Cc1cccnc1)P(=O)(O)O [risedronate],inhibition of the increase in urinary Dpyr level (bone resorption marker),[1],no significant inhibition
same,bone destruction,murine model of myeloma,clear reduction in bone destruction
same,effect on tumor growth / tumor burden,murine model of myeloma,no effect on tumor burden
same,bone mineral density,[6],elevated bone mineral density
same,bone resorption,[6],suppressed bone resorption
NCCC(O)(P(=O)(O)O)P(=O)(O)O [pamidronate],inhibition of the increase in urinary Dpyr level (bone resorption marker),[1],no significant inhibition
same,Dpyr level relative to level before the administration,patients; after 4 weeks,exceeded 80%
same,Dpyr level relative to level before the administration,patients; week 2,about 60%
same,cytotoxic effect within the bone marrow,murine model of myeloma,evidence of a cytotoxic effect within the bone marrow
same,effect on tumor growth / tumor burden,murine model of myeloma,no effect on tumor growth was demonstrated
